Patent US20240116909A1, “NOVEL COMPOUNDS USEFUL AS STING AGONISTS AND USES THEREOF” (priority 2021, published 2024)

Target: human STING WT (Homo sapiens (Human), UniProt Q86WV6)
Assay: Human STING WT binding assay (Cisbio HTRF)
Conditions: human STING WT protein 6His-tagged, 3 hours at RT, read-out: hSTING WT binding IC50
Experimental: Cisbio Bioassays' human STING WT binding assay (#64BDSTGPEG & 64BDSTGPEH, Cisbio) is for quantitative measurement of human STING WT ligand using HTRF® technology.
Negative control: Dispense 5 μL of diluent into each negative control well. Standard: Dispense 5 μL of each Human STING WT Standard 2′3′-cGAMP (Std 0-Std 7) into each standard well. Compound: Dispense 5 μL of compound into each compound well.
Negative control: Add 5 μL of detection buffer to all wells. Other wells: Add 5 μL of human STING WT protein 6His-tagged protein to all wells.
Add 10 μL of premixed STING WT ligand d2 reagent and 6His Tb antibody working solution to all wells.
Seal the plate and incubate 3 hours at RT or at Over Night if necessary.
Remove the plate sealer and read on an HTRF® compatible reader (PerkinElmer, USA). Results were analyzed with a two-wavelength signal ratio: intensity (665 nm)/intensity (620 nm).
Fit the data in GraphPad to obtain IC50 values using equation (2)
Y=Bottom+(Top−Bottom)/(1+10^((Log IC50−X)*Hill Slope)) Equation (2): […]
Y is HTRF Ratio and X is compound concentration.

Sequence of human STING WT (Q86WV6 whole entry): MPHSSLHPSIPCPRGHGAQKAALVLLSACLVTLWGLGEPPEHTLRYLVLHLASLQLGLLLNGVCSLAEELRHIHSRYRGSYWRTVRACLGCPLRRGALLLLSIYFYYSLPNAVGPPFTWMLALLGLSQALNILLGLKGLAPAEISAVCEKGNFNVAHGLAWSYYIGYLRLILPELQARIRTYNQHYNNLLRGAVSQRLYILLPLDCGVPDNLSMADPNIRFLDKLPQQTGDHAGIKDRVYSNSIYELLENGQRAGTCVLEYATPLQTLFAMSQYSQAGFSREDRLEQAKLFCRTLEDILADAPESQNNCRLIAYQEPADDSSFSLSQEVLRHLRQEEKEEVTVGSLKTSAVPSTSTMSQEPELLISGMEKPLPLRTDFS

| SMILES | IC50 |
| --- | --- |
| C=C(COc1c(OC)cc2c(c1Cl)CN(C(=O)CCC(=O)O)C2)COc1c(OC)cc2sc(C(=O)CCC(=O)O)cc2c1F [Example 16, 4-(5-((2-(((2-(3-carboxypropanoyl)-4-chloro-6-methoxyisoindolin-5-yl)oxy)methyl)allyl)oxy)-4-fluoro-6-methoxybenzo[b]thiophen-2-yl)-4-oxobutanoic Acid] | > 150 nM |
| COc1cc2sc(C(=O)CCC(=O)O)cc2cc1OCCCOc1c(OC)cc2c(c1Cl)CN(C(=O)CCC(=O)O)C2 [Example 14, 4-(5-(3-((2-(3-carboxypropanoyl)-4-chloro-6-methoxyisoindolin-5-yl)oxy)propoxy)-6-methoxybenzo[b]thiophen-2-yl)-4-oxobutanoic Acid] | 46.6 nM |
| COc1cc2c(c(Cl)c1OCCCOc1c(OC)cc3sc(C(=O)CCC(=O)O)cc3c1F)CN(C(=O)CCC(=O)O)C2 [Example 2, 4-(5-(3-((2-(3-carboxypropanoyl)-4-chloro-6-methoxyisoindolin-5-yl)oxy)propoxy)-4-fluoro-6-methoxybenzo[b]thiophen-2-yl)-4-oxobutanoic Acid] | 11.4 nM |
| COc1cc2c(cc1OCCCOc1cc3sc(C(=O)CCC(=O)O)cc3nc1OC)CN(C(=O)CCC(=O)O)C2 [Example 15, 4-(5-(3-((2-(3-carboxypropanoyl)-5-methoxythieno[3,2-b]pyridin-6-yl)oxy)propoxy)-6-methoxyisoindolin-2-yl)-4-oxobutanoic Acid] | 92.6 nM |
| COc1cc2sc(C(=O)CCC(=O)O)cc2cc1OCCCOc1c(OC)cc2c(c1F)CN(C(=O)CCC(=O)O)C2 [Example 10, 4-(5-(3-((2-(3-carboxypropanoyl)-4-fluoro-6-methoxyisoindolin-5-yl)oxy)propoxy)-6-methoxybenzo[b]thiophen-2-yl)-4-oxobutanoic Acid] | 0.28 nM |
| COc1cc2c(c(F)c1OCCCOc1c(OC)cc3sc(C(=O)CCC(=O)O)cc3c1F)CN(C(=O)CCC(=O)O)C2 [Example 4, 4-(5-(3-((2-(3-carboxypropanoyl)-4-fluoro-6-methoxybenzo[b]thiophen-5-yl)oxy)propoxy)-4-fluoro-6-methoxyisoindolin-2-yl)-4-oxobutanoic Acid] | 0.18 nM |
| COc1cc2sc(C(=O)[C@H]3C[C@@H]3C(=O)O)cc2cc1OCCCOc1c(OC)cc2c(c1F)CN(C(=O)CCC(=O)O)C2 (relative stereo) [Example 21, trans-2-(5-(3-((2-(3-carboxypropanoyl)-4-fluoro-6-methoxyisoindolin-5-yl)oxy)propoxy)-6-methoxybenzo[b]thiophene-2-carbonyl)cyclopropane-1-carboxylic Acid] | 159 nM |
| COc1cc2c(c(F)c1OCCCOc1c(OC)cc3sc(C(=O)C[C@H](C)C(=O)O)cc3c1F)CN(C(=O)C[C@H](C)C(=O)O)C2 [Example 17, (S)-4-(5-(3-((2-((S)-3-carboxybutanoyl)-4-fluoro-6-methoxybenzo[b]thiophen-5-yl)oxy)propoxy)-4-fluoro-6-methoxyisoindolin-2-yl)-2-methyl-4-oxobutanoic Acid] | 0.19 nM |
| COc1cc2c(nc1OCCCOc1nc3cc(C(=O)CCC(=O)O)sc3cc1OC)CN(C(=O)CCC(=O)O)C2 [Example 11, 4-(5-(3-((6-(3-carboxypropanoyl)-3-methoxy-6,7-dihydro-5H-pyrrolo[3,4-b]pyridin-2-yl)oxy)propoxy)-6-methoxythieno[3,2-b]pyridin-2-yl)-4-oxobutanoic Acid] | 2.54 nM |
| COc1cc2c(cc1OCCCOc1c(OC)cc3sc(C(=O)CCC(=O)O)cc3c1F)CN(C(=O)CCC(=O)O)C2 [Example 20, 4-(5-(3-((2-(3-carboxypropanoyl)-4-fluoro-6-methoxybenzo[b]thiophen-5-yl)oxy)propoxy)-6-methoxyisoindolin-2-yl)-4-oxobutanoic Acid] | 0.19 nM |
| COc1cc2c(cc1OCCCOc1cc3cc(C(=O)NCCC(=O)O)sc3cc1OC)CN(C(=O)CCC(=O)O)C2 [Example 18, 4-(5-(3-((2-((2-carboxyethyl)carbamoyl)-6-methoxybenzo[b]thiophen-5-yl)oxy)propoxy)-6-methoxyisoindolin-2-yl)-4-oxobutanoic Acid] | 4.59 nM |
| COc1cc2c(cc1OCCCOc1cc3cc(C(=O)C[C@H](C)C(=O)O)sc3cc1OC)CN(C(=O)C[C@H](C)C(=O)O)C2 [Example 5, Sodium (S)-4-(5-(3-((2-((S)-3-carboxylatobutanoyl)-6-methoxybenzo[b]thiophen-5-yl)oxy)propoxy)-6-methoxyisoindolin-2-yl)-2-methyl-4-oxobutanoate] | 0.32 nM |
| COc1cc2c(c(F)c1OCCCOc1c(OC)cc3sc(C(=O)CCC(=O)O)cc3c1Cl)CN(C(=O)CCC(=O)O)C2 [Example 3, 4-(5-(3-((2-(3-carboxypropanoyl)-4-chloro-6-methoxybenzo[b]thiophen-5-yl)oxy)propoxy)-4-fluoro-6-methoxyisoindolin-2-yl)-4-oxobutanoic Acid] | 8.4 nM |
| C=C(COc1cc2c(cc1OC)CN(C(=O)CCC(=O)O)C2)COc1cc2cc(C(=O)CCC(=O)O)sc2cc1OC [Example 19, 4-(5-((2-(((2-(3-carboxypropanoyl)-6-methoxybenzo[b]thiophen-5-yl)oxy)methyl)allyl)oxy)-6-methoxyisoindolin-2-yl)-4-oxobutanoic Acid] | 54.6 nM |
| COc1cc2c(cc1OCCCOc1nc3cc(C(=O)CCC(=O)O)sc3cc1OC)CN(C(=O)CCC(=O)O)C2 [Example 8, Sodium 4-(5-(3-((2-(3-carboxylatopropanoyl)-6-methoxyisoindolin-5-yl)oxy)propoxy)-6-methoxythieno[3,2-b]pyridin-2-yl)-4-oxobutanoate] | 0.65 nM |
| COc1cc2c(cc1OCCCOc1cc3cc(C(=O)CCC(=O)O)sc3cc1OC)CN(C(=O)CCC(=O)O)C2 [Example 1, 4-(5-(3-((2-(3-carboxypropanoyl)-6-methoxybenzo[b]thiophen-5-yl)oxy)propoxy)-6-methoxyisoindolin-2-yl)-4-oxobutanoic Acid] | 0.06 nM |
| COc1cc2c(cc1OCCCOc1c(OC)cc3sc(C(=O)C[C@H](C)C(=O)O)cc3c1F)CN(C(=O)C[C@H](C)C(=O)O)C2 [Example 6, Sodium (S)-4-(5-(3-((2-((S)-3-carboxylatobutanoyl)-4-fluoro-6-methoxybenzo[b]thiophen-5-yl)oxy)propoxy)-6-methoxyisoindolin-2-yl)-2-methyl-4-oxobutanoate] | 0.36 nM |
| COc1cc2c(cc1OCCCOc1cc3cc(C(=O)CCC(=O)O)sc3cc1Br)CN(C(=O)CCC(=O)O)C2 [Example 9, 4-(5-(3-((6-bromo-2-(3-carboxypropanoyl)benzo[b]thiophen-5-yl)oxy)propoxy)-6-methoxyisoindolin-2-yl)-4-oxobutanoic Acid] | 2.23 nM |
